Measured values taken from US5525626A (priority 1989, dated 1996).

How the values were obtained:
Assay in all cases: 3H-thymidine assay
Format in all cases: cell-based
G-361 melanoma cells = conditions: Homo sapiens
[1] = system: Tp 483 MG glioblastoma cells
K-562 leukemic cells = conditions: Homo sapiens
Description: (§1) The cell lines were cultivated as indicated in Example 1.
(§2) The antiproliferative effect of the 1,2-benzopyrone derivatives according to the invention on the tumor cell lines in each case was shown with the help of the ^3 H-thymidine insertion and with reference to growth curves.
(§3) In a 24-well-plate, in each case 10^4 cells of the line to be investigated were inoculated per well. Approximately 48 hours later the cells were half-confluent; the medium was then changed and replaced by a medium containing the active substance in question (cf Table 3). After a further 48 hours 0.25 μCi ^3 H-thymidine (Ammersham) was added to each well and the cells were incubated for a further 24 hours. Subsequently the cultures were washed twice with ice-cold PBS and the high-molecular-weight ^3 H-radioactivity was precipitated with 5% trichloroacetic acid for one hour at 4° C. After the washing of the cells in PBS the ^3 H-radioactivity was solubilized with 0.3M NaOH and measured in the counter. The growth-inhibition was determined by comparing the thymidine insertion of the cells treated with active substance with untreated cells.
(§4) The active substance concentration in each case was so chosen that ^3 H-thymidine insertion was 50% inhibited. The active substance concentrations used under this aspect for the active substances and cell lines in each case are given in table 4 below in μM/ml, […]

At T 20 = conditions: Mus musculus
Description: as §1, §2, §3, §4

CAKI-1 cells = conditions: Homo sapiens
Description: as §1, §2, §3, §4

[2] = system: MCF-7 breast cancer cells; conditions: Homo sapiens
Description: as §1, §2, §3, §4

CAKI-2 cells = conditions: Homo sapiens
Description: as §1, §2
as §3, with “After a further 48 hours 0.25 μCi ^3 H-thymidine (Ammersham) was added to each well and the cells were incubated for a further 24 hours.” left out
as §4

[3] = system: Tp 242 MG glioblastoma cells; conditions: Homo sapiens
HCV cells = system: HCV cells
[4] = G-361, read-out: 3H-thymidine tracer (%) of control
[5] = read-out: 3H-thymidine insertion (%) of control
[6] = read-out: active substance concentration at which 3H-thymidine insertion was 50% inhibited
[7] = K562, read-out: 3H-thymidine tracer (%) of control
[8] = AtT20, read-out: 3H-thymidine tracer (%) of control
[9] = CAKI-1, read-out: 3H-thymidine tracer (%) of control
[10] = MCF7, read-out: 3H-thymidine tracer (%) of control
[11] = CAKI-2, read-out: 3H-thymidine tracer (%) of control
[12] = read-out: 3H-thymidine tracer (%) of control

## O=c1ccc2cc(O[C@@H]3O[C@H](CO)[C@@H](O)[C@H](O)[C@H]3O)c(O)cc2o1 [Esculin, 6-beta-D-glucopyranosyloxy-7-hydroxy-1,2-benzopyrone]
G-361 melanoma cells; [4]
  activity at 1 µM: 98%
  activity at 2 µM: 94%
  activity at 4 µM: 90%
  activity at 8 µM: 86%
  activity at 16 µM: 81%
  activity at 25 µM: 74%
  activity at 50 µM: 70%
  activity at 100 µM: 63%
  activity at 250 µM: 60%
  activity at 500 µM: 54%
G-361 melanoma cells; G-361, read-out: active substance concentration at which 3H-thymidine insertion was 50% inhibited
  IC50: > 500 µM
[1]; [5]
  activity at 1 µM: 99%
  activity at 2 µM: 97%
  activity at 4 µM: 89%
  activity at 8 µM: 83%
  activity at 16 µM: 74%
  activity at 25 µM: 66%
  activity at 50 µM: 54%
  activity at 100 µM: 51%
  activity at 250 µM: 48%
  activity at 500 µM: 45%
[1]; [6]
  IC50: 100 µM
K-562 leukemic cells; [7]
  activity at 1 µM: 100%
  activity at 2 µM: 100%
  activity at 4 µM: 96%
  activity at 8 µM: 88%
  activity at 16 µM: 81%
  activity at 25 µM: 72%
  activity at 50 µM: 70%
  activity at 100 µM: 58%
  activity at 250 µM: 51%
  activity at 500 µM: 40%
K-562 leukemic cells; K562, read-out: active substance concentration at which 3H-thymidine insertion was 50% inhibited
  IC50: 250 µM
At T 20; [8]
  activity at 1 µM: 100%
  activity at 2 µM: 94%
  activity at 4 µM: 89%
  activity at 8 µM: 83%
  activity at 16 µM: 72%
  activity at 25 µM: 69%
  activity at 50 µM: 64%
  activity at 100 µM: 58%
  activity at 250 µM: 49%
  activity at 500 µM: 44%
At T 20; AtT20, read-out: active substance concentration at which 3H-thymidine insertion was 50% inhibited
  IC50: 250 µM
CAKI-1 cells; [9]
  activity at 1 µM: 100%
  activity at 2 µM: 94%
  activity at 4 µM: 92%
  activity at 8 µM: 83%
  activity at 16 µM: 78%
  activity at 25 µM: 74%
  activity at 50 µM: 65%
  activity at 100 µM: 60%
  activity at 150 µM: 53%
  activity at 500 µM: 47%
CAKI-1 cells; CAKI-1, read-out: active substance concentration at which 3H-thymidine insertion was 50% inhibited
  IC50: 375 µM
[2]; [10]
  activity at 1 µM: 99%
  activity at 2 µM: 91%
  activity at 4 µM: 88%
  activity at 8 µM: 80%
  activity at 16 µM: 71%
  activity at 25 µM: 69%
  activity at 50 µM: 62%
  activity at 100 µM: 51%
  activity at 250 µM: 49%
  activity at 500 µM: 42%
[2]; MCF7, read-out: active substance concentration at which 3H-thymidine insertion was 50% inhibited
  IC50: > 100 µM
CAKI-2 cells; [11]
  activity at 1 µM: 99%
  activity at 2 µM: 96%
  activity at 4 µM: 90%
  activity at 8 µM: 84%
  activity at 16 µM: 73%
  activity at 25 µM: 72%
  activity at 50 µM: 66%
  activity at 100 µM: 50%
  activity at 150 µM: 56%
  activity at 500 µM: 52%
CAKI-2 cells; CAKI-2, read-out: active substance concentration at which 3H-thymidine insertion was 50% inhibited
  IC50: > 500 µM
[3]; [5]
  activity at 1 µM: 100%
  activity at 2 µM: 98%
  activity at 4 µM: 95%
  activity at 8 µM: 81%
  activity at 16 µM: 73%
  activity at 25 µM: 68%
  activity at 50 µM: 65%
  activity at 100 µM: 61%
  activity at 250 µM: 53%
  activity at 500 µM: 49%
[3]; [6]
  IC50: 500 µM
HCV cells; [12]
  activity at 1 µM: 100%
  activity at 2 µM: 98%
  activity at 4 µM: 95%
  activity at 8 µM: 89%
  activity at 16 µM: 86%
  activity at 25 µM: 83%
  activity at 50 µM: 79%
  activity at 250 µM: 76%
  activity at 500 µM: 75%
HCV cells; [6]
  IC50: > 500 µM
